{
  "source": "patent US8815499B2",
  "about": "“In situ detoxification of fermentation inhibitors with reducing agents” (priority 2009, dated 2014)",
  "key": {"[1]": {"conditions": "acid spruce hydrolysate, 2.5-15 mM, Table 4"}, "[2]": {"system": "yeast Saccharomyces cerevisiae", "test": "Simultaneous saccharification and fermentation (SSF) of sugarcane bagass slurry", "format": "cell-based", "conditions": "7.5 and 10 mM, FIG. 9", "method": "SSF experiments were also performed with sugarcane bagass slurries. […] Reducing agents, dithionite and sulphite, respectively, were added 10 min prior to inoculum in concentrations of studied 7.5 and 10 mM. The ethanol concentration was measured after 13 and 45 hours according to the protocol described in Example 1."}, "[3]": {"system": "baker's yeast (Saccharomyces cerevisiae)", "format": "cell-based", "conditions": "for Glucose consumption rates and amounts of ethanol produced: FIGS. 1 and 2", "procedure": "The pH of the sugarcane bagass and spruce hydrolysates were adjusted to 5.5 with a 5 M solution of sodium hydroxide. The conditioning of each hydrolysate was performed in eight 100-mL glass vessels equipped with magnetic stirrer bars. 26 mL hydrolysate was added to all vessels, and the vessels were placed on a magnetic stirrer plate (IKA-Werke, Staufen, Germany). Sodium dithionite (chemical grade; >87%, Merck, Darmstadt, Germany) was added to hydrolysates in the concentrations 5 and 10 mM. Additions of sodium sulphite to 5 and 10 mM were also performed. The additions were made at room temperature (23° C.) and the samples were kept for 10 min with stirring. The experiments were performed in duplicates.\nThe efficiency of the additions of the reducing agents was compared with alkali detoxification.\nEthanol measurements were performed by using an enzymatic kit (Ethanol UV-method, Boehringer Mannheim GmbH, Mannheim, Germany). Fermentation experiments were performed to evaluate the effectiveness of the additions and treatments. For comparison, untreated hydrolysates were included in the fermentation experiments as well as reference fermentations of sugar-based medium with an amount of fermentable sugars (i.e. glucose and mannose) corresponding to that in the hydrolysate samples. The fermentations were carried out using baker's yeast (Saccharomyces cerevisiae) (Jästbolaget AB, Rotebro, Sweden). The yeast inoculum was prepared in 750-mL cotton-plugged shake flasks with 300 mL YEPD medium ([…], 2% D-glucose). The flasks were inoculated and incubated with agitation at 30° C. for approximately 12 h. The cells were harvested in the late exponential growth phase by centrifugation (Hermla Z206A, Hermle Labortechnik GmbH, Wehingen, Germany) at 1,500 g for 5 min. The cells were resuspended in an appropriate amount of sterile water to achieve an inoculum consisting of 2.0 g/L (cell dry weight) in all fermentation vessels. The fermentation was carried out in 14 25-mL glass flasks equipped with magnets for stirring and sealed with rubber plugs pierced with cannulas for letting out carbon dioxide. The hydrolysate samples (23.75 mL), or alternatively the sugar solution for reference fermentations, were added to the fermentation flasks along with 0.5 mL of a nutrient solution (150 g/L yeast extract, 75 g/L (NH4)2HPO4, 3.75 g/L MgSO4.7 H2O, 238.2 g/L NaH2PO4.H2O), and 0.75 mL of yeast inoculum. The flasks were incubated at 30° C. in a water bath with magnetic stirring (IKA-Werke). Samples for measurement of sugars and ethanol were withdrawn during the fermentation. The glucose levels during the fermentation were estimated by using a glucometer (Glucometer Elite XL, Bayer AG, Leverkusen, Germany)."}, "[4]": {"test": "Fermentation of sugar solution treated with sodium dithionite", "format": "cell-based", "conditions": "Saccharomyces cerevisiae, Saccharomyces cerevisiae yeast cells in fermentation, read-out: Viable cells"}, "[5]": {"system": "yeast Saccharomyces cerevisiae", "test": "Fermentation of sugar solution with model inhibitor coniferyl aldehyde", "conditions": "for viability at 10000 µM: Saccharomyces cerevisiae, read-out: Viable cells", "procedure": "A sugar solution (glucose 18 g/L, mannose 14 g/L) with a coniferyl aldehyde concentration of 2.5 mM was prepared. Half of the solution was treated with 10 mM of sodium dithionite and the rest of the solution was left untreated as a reference. Fermentation was performed with the yeast Saccharomyces cerevisiae as described in the previous Examples."}, "[6]": {"system": "yeast Saccharomyces cerevisiae", "test": "Simultaneous saccharification and fermentation (SSF) of spruce slurry", "format": "cell-based", "conditions": "for Ethanol concentration: after 70 hours", "procedure": "Addition of sodium dithionite and sodium sulphite was tested in an SSF process. Spruce was pretreated as described in Example 1 above. The spruce slurry was adjusted to pH 5.4 with a 5 M solution of sodium hydroxide. Ten 250-mL shake flasks equipped with magnetic stirrer bars were filled with 100 g of spruce slurry. Sodium dithionite or sodium sulphite was added to the slurries to final concentrations of 7.5 and 10 mM. The additions were performed at room temperature (23° C.) for 10 min with stirring. Duplicate experiments were made. Cellulase and cellobiase preparations were prepared and added to the slurry using the enzyme activity loadings as described in Example 1 above. Further, the yeast inoculum was prepared according to Example 1 above. Inoculums were added to give a start concentration of 2.0 g/L (cell dry weight) in every flask. No source of extra nutrients was added. For comparison, two flasks with spruce slurry to which no reducing agents had been added were included in the experiment. The flasks were incubated at 35° C. for 69 h in a water bath with magnetic stirring. The flasks were sealed with Parafilm (Pechiney Plastic Packaging Company, Chicago, Ill., USA) to prevent evaporation of ethanol. Samples were withdrawn for analysis of ethanol according to Example 1 above.\nA spruce slurry was prepared according to Examples 1 and 2 above. Different flasks were filled with 100 g each of the spruce slurry and were subjected to a SSF process according to Example 2 above, but with different amounts of dithionite and sulphite added. The produced ethanol was monitored during the fermentation. […]"}, "[7]": {"system": "yeast Saccharomyces cerevisiae", "conditions": "for Ethanol concentration / Productivity / Yield: 15.0 mM; for viability at 10000 µM: Saccharomyces cerevisiae, read-out: Viable cells; for Fermentability (glucose consumption): acid spruce hydrolysate", "procedure": "A spruce slurry was prepared an subjected to acidic hydrolysis as described in Example 6. […] Sodium dithionite was added to different samples to concentrations of 2.5, 5, 7.5, 10, 12.5, and 15 mM. The treatments were performed at 21° C. for 5 min with stirring. In addition, treatments with 0.1% (7.9 mM) and 1% (79.3 mM) sodium sulphite were performed. […] Furthermore, a sugar solution (glucose 18 g/L, mannose 14 g/L) was prepared to evaluate if the effect of the sodium dithionite treatment was due to an effect on the hydrolysate or the ethanolic fermentation with yeast. Half of the sugar solution was treated with 10 mM sodium dithionite, whereas the rest was left untreated as a reference. The volumes of treated and untreated samples were equalized with water and the pH was adjusted to pH 5.5 prior to the fermentation. Fermentation was performed with the yeast Saccharomyces cerevisiae as described in the previous Examples.\nSpruce hydrolysate samples were prepared as in Example 6.\nTwo samples were treated with DTT to 2 and 20 mM, respectively, two samples were treated with ascorbic acid to 10 and 100 mM, respectively and two samples were treated with glutathione to 1 and 10 mM, respectively.\nThe treatment time was 3 h for all samples and fermentation was performed as described in the previous Examples."}, "[8]": {"conditions": "bagass hydrolysate, 6 h fermentation, 10 mM"}, "[9]": {"conditions": "spruce hydrolysate, 14 h fermentation, 10 mM"}},
  "note": "Like-named read-outs stand apart in the source and are kept apart here.",
  "data": [
    {"smiles": "O=S([O-])S(=O)[O-].[Na+].[Na+]", "note": "[Dithionite, Sodium dithionite]", "values": [
      {"measurement": "Degradation of monosaccharide", "setting": "[1]", "result": "No significant degradation"},
      {"measurement": "Fermentability (ethanol production after 13 and 45 hours)", "setting": "[2]", "result": "improved fermentability"},
      {"measurement": "Balanced ethanol yield", "setting": "[3]; [8]", "result": "0.28 g EtOH/Σglucose & mannose prior to detoxification"},
      {"measurement": "Productivity", "setting": "[3]; [8]", "result": 3.9, "unit": "g EtOH × L^−1 × h^−1"},
      {"measurement": "Yield", "setting": "[3]; [8]", "result": "0.34 g EtOH/g consumed glucose & mannose"},
      {"measurement": "Ethanol production", "setting": "[3]; bagass hydrolysate, 6 h fermentation, FIG. 4", "result": "high ethanol production"},
      {"measurement": "Glucose consumption rates and amounts of ethanol produced", "setting": "[3]; spruce hydrolysate, 5 mM", "result": "substantial improvement"},
      {"measurement": "Glucose consumption rates and amounts of ethanol produced", "setting": "[3]; spruce hydrolysate, 10 mM", "result": "comparable to those of the reference fermentation"},
      {"measurement": "Balanced ethanol yield", "setting": "[3]; [9]", "result": "0.34 g EtOH/Σglucose & mannose prior to detoxification"},
      {"measurement": "Productivity", "setting": "[3]; [9]", "result": 2.5, "unit": "g EtOH × L^−1 × h^−1"},
      {"measurement": "Yield", "setting": "[3]; [9]", "result": "0.37 g EtOH/g consumed glucose & mannose"},
      {"measurement": "viability at 2.25 h, 10 mM", "setting": "[4]; pH 5.5, fermentation time 2.25 h", "result": "80.8 ± 4.5", "unit": "%"},
      {"measurement": "viability at 7 h, 10 mM", "setting": "[4]; pH 5.5, fermentation time 7 h", "result": "84.3 ± 2.9", "unit": "%"},
      {"measurement": "viability at 10000 µM", "setting": "[5]; 2.25 h", "result": 76.7, "unit": "%"},
      {"measurement": "viability at 10000 µM", "setting": "[5]; 7 h", "result": "75 ± 8", "unit": "%"},
      {"measurement": "Glucose consumption rate", "setting": "[5]; sugar solution with coniferyl aldehyde (2.5 mM), sodium dithionite 10 mM, FIG. 12", "result": "much higher"},
      {"measurement": "Ethanol concentration", "setting": "[6]; 2.5 mM", "result": "about 10 g/L"},
      {"measurement": "Ethanol concentration", "setting": "[6]; 5 mM", "result": "35 to 40", "unit": "g/L"},
      {"measurement": "Ethanol concentration", "setting": "[6]; 7.5 mM", "result": "highest ethanol production"},
      {"measurement": "Time after which ethanol formation leveled off", "setting": "[6]; 10 mM, FIG. 5", "result": "about 45 h"},
      {"measurement": "Improvement of ethanol production, dithionite versus sulphite", "setting": "[6]; 10 mM, FIG. 8", "result": "better improvement than the addition of sulphite"},
      {"measurement": "Ethanol concentration", "setting": "[6]; 10 mM", "result": "highest ethanol production"},
      {"measurement": "Ethanol concentration", "setting": "[6]; 15 mM", "result": "highest ethanol production"},
      {"measurement": "Ethanol concentration", "setting": "[6]; 20 mM", "result": "35 to 40", "unit": "g/L"},
      {"measurement": "Ethanol concentration", "setting": "[6]; 30 mM", "result": "about 30 g/L"},
      {"measurement": "Ethanol production compared to the untreated hydrolysate", "setting": "[6]; 7.5 and 10 mM, FIG. 5", "result": "higher ethanol production"},
      {"measurement": "Ethanol concentration", "setting": "[7]; 2.75 h", "result": 5.07, "unit": "g/L"},
      {"measurement": "Productivity", "setting": "[7]; 2.75 h", "result": 1.84, "unit": "g EtOH × L^−1 × h^−1"},
      {"measurement": "Yield", "setting": "[7]; 2.75 h", "result": "0.37 g EtOH/g consumed glucose and mannose"},
      {"measurement": "Ethanol concentration", "setting": "[7]; 4.25 h", "result": 9.81, "unit": "g/L"},
      {"measurement": "Productivity", "setting": "[7]; 4.25 h", "result": 2.31, "unit": "g EtOH × L^−1 × h^−1"},
      {"measurement": "Yield", "setting": "[7]; 4.25 h", "result": "0.44 g EtOH/g consumed glucose and mannose"},
      {"measurement": "Ethanol concentration", "setting": "[7]; 6.25 h", "result": 14.59, "unit": "g/L"},
      {"measurement": "Productivity", "setting": "[7]; 6.25 h", "result": 2.33, "unit": "g EtOH × L^−1 × h^−1"},
      {"measurement": "Yield", "setting": "[7]; 6.25 h", "result": "0.47 g EtOH/g consumed glucose and mannose"},
      {"measurement": "Ethanol concentration", "setting": "[7]; 9.25 h", "result": 15.47, "unit": "g/L"},
      {"measurement": "Productivity", "setting": "[7]; 9.25 h", "result": 1.67, "unit": "g EtOH × L^−1 × h^−1"},
      {"measurement": "Yield", "setting": "[7]; 9.25 h", "result": "0.49 g EtOH/g consumed glucose and mannose"},
      {"measurement": "viability at 10000 µM", "setting": "[7]; 2.25 h", "result": 91, "unit": "%"},
      {"measurement": "viability at 10000 µM", "setting": "[7]; 7 h", "result": "96.7 ± 2.5", "unit": "%"},
      {"measurement": "Fermentability (glucose consumption)", "setting": "[7]; 15 mM, FIG. 11", "result": "fermented about as well as the NH4OH treated sample and the plain sugar solution"},
      {"measurement": "Fermentability (glucose consumption)", "setting": "[7]; 2.5-15 mM, FIG. 10", "result": "improved fermentability"}
    ]}
  ]
}
